# In PubChem BioAssay (NCI):
# Values joined by “and” are separate entries in the source; they are usually repeats but may differ in a detail not shown here. Equal values may be shown once.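 96-well plates; 48 h exposure; 5 concentrations. Endpoints by linear interpolation between flanking doses. Not reached: highest tested concentration assigned. GI50 = concentration required for 50% inhibition of growth. The concentration for full growth arrest is given as TGI.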
# Test system: MDA-MB-468 breast
# Experiment: DTP human tumour cell line panel, 48 h
SMILES,GI50,TGI
COc1ccc(C2CC(c3ccc4ccccc4c3)=NN2/C=C2\SC(=S)N(NC(=O)Cc3ccccc3Nc3c(Cl)cccc3Cl)C2=O)cc1 (stereo unspecified),544 nM,> 34200 nM
O=c1ncc(I)c[nH]1,> 100000 nM,> 100000 nM
COc1ccc(/C=C(/C(=O)N2CCN(c3ccc(C)cc3)CC2)c2cc(OC)c(OC)c(OC)c2)cc1N,224 nM,
COc1ccccc1CN=C1NC(=O)/C(=C/c2ccc3ncccc3c2)S1,3350 nM,> 25000 nM
COc1ccc(Nc2[nH]n(C3=Nc4ccccc4Sc4ccccc43)c(=O)c2C#N)cc1,382 nM,2810 nM
OC1CCN(CCCOc2c3ccccc3nc3c2oc2ccccc23)CC1,1760 nM,4910 nM
C/C(=N\NC(=O)c1cccc(S(=O)(=O)N2CCN(C)CC2)c1)c1cc(Cl)ccc1O,402 nM,3870 nM
COc1ccc2nc(-c3ccc(Cl)cc3)cc(-c3nnc(SCC(=O)Nc4ccc(/C(C)=N\O)cc4)o3)c2c1,1380 nM,3580 nM
Nc1c(C(=O)c2cccc(C(O)(CO)CO)c2)cnn1-c1ccc(F)cc1,> 25000 nM,> 25000 nM
CC/C=C\C[C@H](O)C/C=C1/C(=O)C=C[C@@H]1C/C=C\CCCC(=O)OCCS(=O)(=O)c1ccccc1,2280 nM,6830 nM
CCN(CC)c1ccc(CNc2cc(C)nc3ccc(OC)cc23)cc1,1020 nM,2630 nM
COc1cc(/C=C/C(=O)c2ccc(F)cc2)ccc1OCCCCOc1cc2c(cc1OC)C(=O)N1CCCC1C=N2 (stereo unspecified),1710 nM,3590 nM
CN(C)c1ccc(/C=N/NC(=O)CSc2nc3sc4c(c3c(=O)n2-c2ccccc2)CCCCC4)cc1,3850 nM,> 100000 nM
c1cc2c(cc1NC1=NCCO1)CCCC2,6180 nM,24800 nM
COc1ccc(C(=O)OC2C(OC3C(O)COC(O[C@H]4C[C@H]5[C@@H]6CC=C7C[C@@H](O)CC[C@]7(C)[C@H]6CC[C@]5(C)[C@H]4[C@H](C)C(=O)CCC(C)C)C3OC(=O)C(C)C)OCC(O)C2O)cc1 (stereo partly specified),58.3 nM,3550 nM
COc1cc(-c2nn(-c3ccc(NC(=O)Nc4ccc(Cl)c(C(F)(F)F)c4)cc3)cc2-c2ccncc2)ccc1Cl,1390 nM,3230 nM
N#Cc1c(N)n(C2OC(CO)C(O)C2O)c2ncnc(N)c12 (stereo unspecified),17.3 nM,34.9 nM
CC[C@]12C=CCN3CC[C@@]4(c5ccc(OC)cc5N(C)[C@H]4[C@@](O)(C(=O)OC)[C@@H]1OC(=O)CCCC[P+](c1ccccc1)(c1ccccc1)c1ccccc1)[C@@H]32,195 nM,575 nM
O=C(NCCN1CCOCC1)Nc1nc2ccc(Sc3nnc4ccc(-c5ccc(F)cc5)nn34)cc2s1,,> 29300 nM

SMILES,GI50,TGI
Cc1ccc(C(=O)Nc2ccc(CN3CCN(C)CC3)c(C(F)(F)F)c2)cc1C#Cc1cnc(N)c2ccc(C#N)cc12,156 nM,9630 nM
O=C1C2=C(C(=O)c3c(O)ccc(O)c31)N(c1cccnc1)Cc1ccccc1O2,175 nM,458 nM
COc1ccc2c(c1)O/C(=C\c1ccc([N+](=O)[O-])o1)C2=O,519 nM,2260 nM
Oc1ccccc1/C=N/Nc1nc2ccccc2s1,2510 nM,60700 nM
OCCNC(=S)Nc1ccc(-c2nc(N3C[C@H]4CC[C@@H](C3)O4)c3cccn3n2)cc1,17.4 nM,289 nM
CC(C)C[C@H](NC(=O)[C@H](Cc1ccccc1)NC(=O)c1cnccn1)B(O)O,< 10 nM and 1.9 nM,< 10 nM and 5.2 nM
CCCCCCCC(=O)SCC/C=C/[C@@H]1CC(=O)NCc2cccc(n2)C2=N[C@@](C)(CS2)C(=O)N[C@@H](C(C)C)C(=O)O1,107 nM,> 33300 nM
O=C(/C=C/c1ccccc1)Nc1ncc(Cc2ccccc2)s1,416 nM,> 100000 nM
Cc1ccccc1NC(=O)N/C(N)=N/c1nc(C)c(C)s1,224 nM,788 nM
COc1ccc(NC(=O)COc2ccccc2)c(C(N)=O)c1,453 nM,> 62800 nM
O=c1[nH]ccc2nc(N3CCC(O)CC3)nc(Nc3ccc(N4CCOCC4)cc3)c12,43200 nM,> 100000 nM
COc1ccc(-c2c(-c3cc4c(c(OC)c3OC)OCO4)noc2N)cc1,192 nM,
CS(=O)(=O)c1nccc(-c2c(-c3cccc(OCc4ccccc4)c3)nc3sccn23)n1,1410 nM,3000 nM
Cc1cc(NCCCNc2ccnc3cc(Cl)ccc23)nc(Nc2ccc(C(=O)N3CCCCC3)cc2)n1,2330 nM,4690 nM
C=C(C)[C@@H]1CC[C@]2(C(=O)N3CCN(C)CC3)CC[C@]3(C)[C@H](CC[C@@H]4[C@@]5(C)C/C(=C/c6ccncc6)[C@H](O)C(C)(C)[C@@H]5CC[C@]43C)[C@@H]12,5450 nM,26100 nM
COc1ccc2[nH]cc(/C=N/Nc3ccnc4cc(Cl)ccc34)c2c1,1130 nM,2600 nM
O=C(Nc1ccc(-n2ccc3c(NC(=O)c4ccccc4)ncnc32)cc1)Nc1ccc(Cl)c(C(F)(F)F)c1,1440 nM,3320 nM
Cc1c(C)n(CC(O)CNC2CCCCC2C)c2ccccc12 (stereo unspecified),9210 nM,23000 nM
